{"source": "patent US10287228B2", "about": "“Antimalarial agent, methods and uses thereof” (UNIVERSIDADE DO PORTO, priority 2015, dated 2019)", "key": {"[1]": {"system": "HT-29 colon adenocarcinoma human cells", "conditions": "cited from earlier work"}, "[2]": {"system": "P. falciparum multidrug-resistant Dd2 strain", "experiment": "microbe, parasite or virus in culture", "format": "cell-based, Plasmodium falciparum", "description": "(§1) In an embodiment, hierridin B and hierridin C were tested for in vitro activity towards the P. falciparum strains, in particular P. falciparum 3D7 strain and the multidrug-resistant Dd2 strain to verify whether the chlorine atom featured in hierridin C affects the activity of the compound, in particular the antimalarial activity.\n(§2) In an embodiment, the laboratory-adapted P. falciparum 3D7 and Dd2 strains were cultivated on human erythrocytes suspended in RPMI 1640 medium supplemented with 25 mM HEPES, 6.8 mM hypoxanthine and 10% AlbuMAX II (Life Technologies, Carlsbad, Calif., USA), at pH 7.2. Cultures were maintained at 37° C. under an atmosphere of 5% O2, 3-5% CO2 and N2, and synchronized by sorbitol treatment prior to the assays. Staging and parasitaemia were determined by light microscopy of Giemsa-stained thin blood smears.\n(§3) In an embodiment, the antimalarial activities of hierridin B and hierridin C were determined using the SYBR Green I (Life Technologies). Early ring stage parasites were tested in triplicate in a 96-well plate and incubated with drugs for 48 h (37° C., 5% CO2), parasite growth was assessed with SYBR Green I. Each compound was tested in a concentration ranging from 10-0.0097 μM (0.2% DMSO). Fluorescence intensity was measured with a multi-mode microplate reader (Triad, Dynex, Chantilly, Va., USA) with excitation and emission wavelengths of 485 nm and 535 nm, respectively, and analyzed by nonlinear regression using GraphPad Prism 5 (GraphPad Software, La Jolla, Calif., USA)."}, "P. falciparum 3D7 strain": {"system": "P. falciparum 3D7 strain", "experiment": "SYBR Green I antimalarial activity, P. falciparum 3D7", "format": "cell-based, Plasmodium falciparum", "conditions": "read-out: IC50 P. faldparum 3D7", "description": "as §1\nas §2, with “Cultures were maintained at 37° C. under an atmosphere of 5% O2, 3-5% CO2 and N2, and synchronized by sorbitol treatment prior to the assays.” left out\nas §3"}, "MG-63 osteosarcoma": {"system": "MG-63 osteosarcoma", "experiment": "Cytotoxicity, cell lines exposed to hierridin C", "format": "cell-based", "conditions": "MG-63, up to 30 μg mL−1 (75.2 μM)", "description": "(§4) In an embodiment, several cell lines were exposed to hierridin C, in particular to a concentration of hierridin C up to 30 μg mL^−1 (75.2 μM). The cell lines exposed to hierridin C, were in particular the cell lines of hepatocellular carcinoma HepG2, colon adenocarcinoma HT-29, neuroblastoma SH-SY5Y, breast carcinoma T47D, normal prostate cell line PNT2, breast adenocarcinoma, RKO colon carcinoma and MG-63 osteosarcoma."}, "[3]": {"system": "hepatocellular carcinoma HepG2", "experiment": "Cytotoxicity, cell lines exposed to hierridin C", "format": "cell-based", "conditions": "HepG2, up to 30 μg mL−1 (75.2 μM)", "description": "as §4"}, "neuroblastoma SH-SY5Y": {"system": "neuroblastoma SH-SY5Y", "experiment": "Cytotoxicity, cell lines exposed to hierridin C", "format": "cell-based", "conditions": "up to 30 μg mL−1 (75.2 μM)", "description": "as §4"}, "breast carcinoma T47D": {"system": "breast carcinoma T47D", "experiment": "Cytotoxicity, cell lines exposed to hierridin C", "format": "cell-based", "conditions": "up to 30 μg mL−1 (75.2 μM)", "description": "as §4"}, "breast adenocarcinoma": {"system": "breast adenocarcinoma", "experiment": "Cytotoxicity, cell lines exposed to hierridin C", "format": "cell-based", "conditions": "up to 30 μg mL−1 (75.2 μM)", "description": "as §4"}, "RKO colon carcinoma": {"system": "RKO colon carcinoma", "experiment": "Cytotoxicity, cell lines exposed to hierridin C", "format": "cell-based", "conditions": "up to 30 μg mL−1 (75.2 μM)", "description": "as §4"}, "[4]": {"system": "normal prostate cell line PNT2", "experiment": "Cytotoxicity, cell lines exposed to hierridin C", "format": "cell-based", "conditions": "PNT2, up to 30 μg mL−1 (75.2 μM)", "description": "as §4"}, "[5]": {"system": "colon adenocarcinoma HT-29", "experiment": "Cytotoxicity, cell lines exposed to hierridin C", "format": "cell-based, human", "conditions": "HT-29, up to 30 μg mL−1 (75.2 μM)", "description": "as §4"}}, "note": "Read-outs that look alike come from different tables or passages of the source."}
{"smiles": "CCCCCCCCCCCCCCCc1cc(OC)cc(OC)c1O", "note": "[Hierridin B, reference compound]", "values": [{"measurement": "cytotoxicity towards HT-29", "setting": "[1]", "result": "modest, selective cytotoxicity"}, {"measurement": "IC50", "setting": "[2]; Dd2 strain (resistant to chloroquine and mefloquine), 48 h incubation, SYBR Green I, read-out: IC50 P. faldparum Dd2", "result": "2.25 ± 0.67", "unit": "µM"}, {"measurement": "IC50", "setting": "P. falciparum 3D7 strain; 3D7 strain (sensitive to chloroquine), 48 h incubation, SYBR Green I", "result": "2.09 ± 0.08", "unit": "µM"}]}
{"smiles": "CCCCCCCCCCCCCCCc1c(O)c(OC)cc(OC)c1Cl", "note": "[Hierridin C, 3-chloro-4,6-dimethoxy-2-pentadecylphenol]", "values": [{"measurement": "cytotoxicity", "setting": "MG-63 osteosarcoma", "result": "No cytotoxicity was observed"}, {"measurement": "cytotoxicity", "setting": "[3]", "result": "No cytotoxicity was observed"}, {"measurement": "cytotoxicity", "setting": "neuroblastoma SH-SY5Y", "result": "No cytotoxicity was observed"}, {"measurement": "cytotoxicity", "setting": "breast carcinoma T47D", "result": "No cytotoxicity was observed"}, {"measurement": "cytotoxicity", "setting": "breast adenocarcinoma", "result": "No cytotoxicity was observed"}, {"measurement": "cytotoxicity", "setting": "RKO colon carcinoma", "result": "No cytotoxicity was observed"}, {"measurement": "cytotoxicity", "setting": "[4]", "result": "No cytotoxicity was observed"}, {"measurement": "cytotoxicity", "setting": "[5]", "result": "No cytotoxicity was observed"}, {"measurement": "Resistance indices (RI)", "setting": "[2]; Dd2 versus 3D7", "result": 0.93}, {"measurement": "IC50", "setting": "[2]; Plasmodium falciparum, DD2, 48 h, read-out: IC50 P. faldparum Dd2", "result": "2.31 ± 0.11", "unit": "µM"}, {"measurement": "IC50", "setting": "[2]; Plasmodium falciparum, DD2, read-out: IC50 in P. falciparum strains", "result": "~2", "unit": "µM"}, {"measurement": "therapeutical index", "setting": "[2]; relative to IC50 in P. falciparum strains", "result": ">= 50"}, {"measurement": "IC50", "setting": "P. falciparum 3D7 strain; Plasmodium falciparum, 3D7, 48 h", "result": "1.52 ± 0.05", "unit": "µM"}]}
